The subject of one data set is Jurkat cells. Briefly: lactate excretion by Jurkat cells (enzymatic L-lactic acid kit). Particulars: preliminary test, 100 µM inhibitor, followed for 48 hours, versus DMSO control. The data set is classed as cell-based, human. How it is done:
The cells were incubated in 1 mL volume (24 well plates) at 5% CO2 and 37°C. The inhibitors were added in 100 µM concentration. As a control, equivalent amount of DMSO as used for the addition of inhibitors was supplemented to the medium. The tests started with 1×10^5 cells per mL. Extracellular lactate excreted by the Jurkat cells was measured in the supernatant of the growth medium after the cells were removed by centrifugation at 1500 rpm for 5 minutes. Lactate concentration was determined enzymatically using L-Lactatic acid kit (K-LATE, Megazyme, Ireland).
Measurements of lactate excretion in the tumorigenic Jurkat cells and the cells treated with two selected inhibitors at different concentrations were repeated by more detailed measurements. The growth conditions were identical to those described in Experiment 2. No significant difference in lactate excretion could be observed by the treated and untreated cells during the initial stage of growth that lasted for approximately 12 hours. Later on lactate excretion by the Jurkat cells ceased in the presence of both inhibitors.

Data set [1] has as its target T1, modified (47 kDa) 6-phosphofructo-1-kinase (PFK-M), sfPFK-M fragments (Homo sapiens, UniProt P08237).
T1 sequence (P08237 1-443 limits assumed): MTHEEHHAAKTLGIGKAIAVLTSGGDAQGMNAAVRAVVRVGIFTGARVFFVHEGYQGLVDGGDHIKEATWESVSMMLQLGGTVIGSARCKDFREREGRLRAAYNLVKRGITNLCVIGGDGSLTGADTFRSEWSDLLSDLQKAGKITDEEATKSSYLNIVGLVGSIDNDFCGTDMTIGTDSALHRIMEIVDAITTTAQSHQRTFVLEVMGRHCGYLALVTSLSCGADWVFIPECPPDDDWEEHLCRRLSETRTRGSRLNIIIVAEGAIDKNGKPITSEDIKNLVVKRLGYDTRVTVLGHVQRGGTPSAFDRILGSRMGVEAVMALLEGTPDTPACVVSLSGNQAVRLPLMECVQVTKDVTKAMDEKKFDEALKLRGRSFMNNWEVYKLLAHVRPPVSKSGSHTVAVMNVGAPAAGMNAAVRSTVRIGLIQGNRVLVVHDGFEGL
Briefly: in vitro inhibition of purified recombinant modified (cancer-specific) PFK-M fragments. To be noted: native and modified PFK-M not distinguished.
Procedure: Initially, all compounds were tested in vitro for inhibition of the purified human native enzyme (85 kDa) and modified cancer-specific shorter fragments (47 kDa) of muscle type PFK-M, followed by measurements of the purified native enzyme (85 kDa) and shorter fragments (70 kDa) of liver type PFK-L isoform.
Selected compounds were tested for in vitro inhibition of isolated recombinant human native and modified PFK-M enzymes.
The yeast transformant encoding the native human PFK-M enzyme was designated as nPFKM strain while transformant encoding cancer specific shorter fragments was designated as sfPFKM strain. […] For the enzymatic measurements, all the substrates (F6P and ATP), auxiliary enzymes, NADH and inhibitors dissolved in DMSO were added first to the buffer with PEG. After thorough mixing of the buffer with all ingredients, the enzymatic reaction started by the insertion of the purified recombinant enzymes.

For data set [2], the system named is COLO 829 cells. Description: lactate excretion by COLO 829 cells. The class given is cell-based. To be noted: for lactate excretion by COLO 829 cells: single addition, different concentrations. How it is done:
(§1) Preliminary in vivo tests were run by measuring lactate production by three different tumorigenic cell lines. Again, 100 µM concentrations of tested compounds have been added to the medium. For the experiment, the following tumorigenic cells lines originating from different tumours were tested: Caco-2 cells (Figure 10a), originating from colorectal adenoma carcinoma; COLO 829 cells (Figure 10b), isolated from melanoma; and MDA-MB-231 cells (Figure 10c) derived from metastatic phase of mammary/breast cancer. All adherent cell lines were grown in the RPMI 1640 GlutaMAX substrate (Thermo Fisher) supplemented with 10% FBS.
On the basis of preliminary results, inhibitors No. 23, 29, 30 and 31 were tested on COLO 829 cells. […] No significant discrepancies of total cell numbers in respect to the control were observed due to the different concentrations of inhibitors in the medium (Figure 13e). The average percent of dead COLO 829 cells in the control and in the presence of different concentrations of inhibitors were as follows: inh. 23 (9,23±0,6%), inh. 29 (9,31±0,73%), inh. 30 (8,27±0,49%), inh. 31 (8,26±0,38%). Additionally, cytotoxicity of inh. 3 (5,01±1,08%) and 9 (3,65±0,78%) for COLO 829 cells were also determined. No dose dependent decrease of survival was observed by any inhibitor.
(§2) A decrease in inhibitory effectiveness of some compounds was observed after certain period of time (Example 11). […] Therefore, the influence of selected inhibitors was assessed by sequential re-insertion of low concentrations of inhibitors at indicated time points. The inhibitors were first added to the medium 8 hours after the inoculation followed by periodically additions at 24-hour intervals (marked by arrows).
No significant cytostatic (Figure 16f) of cytotoxic effect of inhibitors could be detected after 92 hours of incubation despite of sequential addition of various concentrations of inhibitors. The following average percentages of dead cells were perceived in the medium without and media with inh. 3 (1,95±0,15%) inh. 9 (1,70±0,14%), inh. 23 (2,40±0,09%), inh. 29 (1,66±0,25%) and inh. 30 (1,38±0,18%). No detrimental effects of increased inhibitors concentrations on cell deaths have been observed.

For data set [3], the system named is Caco-2 cells. Description: lactate excretion by Caco-2 cells. The data set is classed as cell-based. Particulars: single addition. How it is done:
Preliminary in vivo tests were run by measuring lactate production by three different tumorigenic cell lines. […] For the experiment, the following tumorigenic cells lines originating from different tumours were tested: Caco-2 cells (Figure 10a), originating from colorectal adenoma carcinoma; COLO 829 cells (Figure 10b), isolated from melanoma; and MDA-MB-231 cells (Figure 10c) derived from metastatic phase of mammary/breast cancer.
(§3) Lactate generation, growth yield and survival under normal and inhibitory conditions of three different tumorigenic cells lines were determined in more detailed measurements. […] Cytotoxicity was measured by the Lactate dehydrogenase (LDH) kit (Roche).
Therefore, the influence of selected inhibitors was assessed by sequential re-insertion of low concentrations of inhibitors at indicated time points. The inhibitors were first added to the medium 8 hours after the inoculation followed by periodically additions at 24-hour intervals (marked by arrows).

In data set [4] the test system is MDA-MB-231 cells. Description: cytotoxicity in MDA-MB-231 cells (LDH kit). Particulars: for average percent of dead MDA-MB-231 cells: single addition, average over control and different concentrations of inhibitor. The class given is cell-based. As to the method:
as §3
Inhibitors No. 23, 29, 30 and 31 were tested for preventing lactate generation by the MDA-MB-231 cells.

In data set [5] the test system is Caco-2 cells. Briefly: cytotoxicity in Caco-2 cells (lactate dehydrogenase (LDH) kit). The data set is classed as cell-based. How it is done:
as §3

Data set [6] deals with MDA-MB-231 cells. Briefly: lactate excretion by MDA-MB-231 cells. The class given is cell-based. Particulars: single addition; for lactate excretion by MDA-MB-231 cells: different concentrations. How it is done: as §1
Inhibitors No. 23, 29, 30 and 31 were tested for preventing lactate generation by the MDA-MB-231 cells. […] No significant discrepancies of total cell numbers were observed (Figure 14e) due to the different concentrations of inhibitors in the medium. […] The average percent of dead MDA-MB-231 cells in the control and in the presence of different concentrations of inhibitors were as follows: inh. 23 (2,98±0,2%), inh. 29 (3,37±0,39%), inh. 30 (3,4±0,21%), inh. 31 (6,87±0,44%). Additionally, cytotoxicity of inh. 3 (7,2±0,47%) and 9 (6,59±0,29%) for MDA-MB-231 cells were also determined. No dose dependent decrease of survival was observed by any inhibitor.
as §2
In MDA-MB-231 calls similar results to those found in Caco-2 cells were observed. […] No significant cytostatic (Figure 17f) or cytotoxic effect of inhibitors could be detected after 92 hours of incubation despite of sequential addition of various concentrations of inhibitors. The following average percentages of dead cells were perceived in the medium without and with inh. 3 (2,05±0,18%), inh. 9 (1,85±0,05%), inh. 23 (2,20±0,15%), inh. 29 (1,54±0,16%) and inh. 30 (2,00±0,18%). No detrimental effects of increased inhibitors concentrations on cell deaths have been observed.

For data set [7], the system named is COLO 829 cells. Briefly: cytotoxicity in COLO 829 cells (LDH kit). To be noted: for average percent of dead COLO 829 cells: single addition, average over control and different concentrations of inhibitor. The class given is cell-based. As to the method:
as §3

Setting [8] is: sequential addition at 24-hour intervals, 92 hours, average over medium without and with inhibitor.

In the case of `Cc1nnc(COC(=O)c2ccc3noc(-c4ccccc4)c3c2)o1` [Inhibitor No. 8, (5-methyl-1 ,3,4-oxadiazol-2-yl)methyl 3-phenyl-2,1-benzoxazole-5-carboxylate], in the data set with Jurkat cells, the “lactate excretion by the Jurkat cells” value is given as “Less efficient reduction of lactate overflow”. The “in vitro PFK-M inhibition” value in data set [1] was “no in vitro PFK-M inhibition could be detected”.

In the case of `CNC(=O)c1nc(CN2CCc3onc(-c4cccc(F)c4)c3C2)no1` [Inhibitor No. 11, 3-{[3-(3-fluorophenyl)-6,7-dihydroisoxazolo[4,5-c]pyridin-5(4H)-yl]methyl}-N-methyl-1,2,4-oxadiazole-5-carboxamide], in the data set with Jurkat cells, the “lactate excretion by the Jurkat cells” value is “Less efficient reduction of lactate overflow”. Also, the “in vitro PFK-M inhibition” value in data set [1] is on record as “no in vitro PFK-M inhibition could be detected”.

With `CNC(=O)c1nc(CN2CCc3onc(-c4ccccc4F)c3C2)no1` [Inhibitor No. 13, 3-{[3-(2-fluorophenyl)-6,7-dihydroisoxazolo[4,5-c]pyridin-5(4H)-yl]methyl}-N-methyl-1,2,4-oxadiazole-5-carboxamide], in the data set with Jurkat cells, the “lactate excretion by the Jurkat cells” value is listed as “Less efficient reduction of lactate overflow”. Also, the “in vitro PFK-M inhibition” value in data set [1] was “no in vitro PFK-M inhibition could be detected”.

As for `Cc1ccc(-c2cccc(-c3ccn(Cc4nnc(C)o4)n3)c2)nn1` [Inhibitor No. 14], the “lactate excretion by the Jurkat cells” value with Jurkat cells is reported as “Less efficient reduction of lactate overflow”. For the same compound, the “in vitro PFK-M inhibition” value in data set [1] is listed as “no in vitro PFK-M inhibition could be detected”.

Consider `CS(=O)(=O)Nc1nnc(NC(=O)c2ccc3[nH]c4c(c3c2)CCCC4)s1` [Inhibitor No. 23, N-[5-(methanesulfonamido)-1,3,4-thiadiazol-2-yl]-6,7,8,9-tetrahydro-5H-carbazole-3-carboxamide], for which the “concentration at which comprehensive inhibition of lactate formation was detected, COLO 829” value in the data set with COLO 829 cells [2] (sequential re-insertion at 24-hour intervals) is not below 20 µM. In addition, the “lactate excretion by COLO 829 cells” value with COLO 829 cells [2] is reported as “Slightly weaker inhibition”. In the data set with Caco-2 cells [3] (20-80 µM, later the inhibitory effect was lost), the “period of strong inhibition of lactate generation, Caco-2” value came out at 36 h. In the data set on Caco-2 cells [3] (different concentrations (20-80 µM)), the “lactate generation by Caco-2 cells” value was “strong inhibition of lactate generation”. Moreover, the “average percentages of dead cells, MDA-MB-231, sequential re-insertion” value with MDA-MB-231 cells [4] (setting [8]) is reported as 2,20±0,15%. Also, the “average percent of dead MDA-MB-231 cells” value in the data set with MDA-MB-231 cells [4] is 2,98±0,2%. The “average percentages of dead cells, Caco-2, sequential re-insertion” value in the data set on Caco-2 cells [5] (setting [8]) was 4,05±0,54%. Moreover, the “average percent of dead cells, Caco-2” value in the data set with Caco-2 cells [5] (single addition, average over control and different concentrations of inhibitor) is 3,35±0,08%. In the data set on MDA-MB-231 cells [6], the “lactate excretion by MDA-MB-231 cells” value is “strong inhibition”. The “period of strong inhibition of lactate generation, MDA-MB-231” value with MDA-MB-231 cells [6] (later on lactate generation re-appeared) was 42 h. For the same compound, the “average percentages of dead cells, COLO 829, sequential re-insertion” value in the data set on COLO 829 cells [7] (setting [8]) is 2,40±0,09%. In addition, the “average percent of dead COLO 829 cells” value in the data set on COLO 829 cells [7] was 9,23±0,6%.

Turning to `O=C(Nc1nnc(-c2ccno2)o1)[C@H]1COc2ccccc2O1` [Inhibitor No. 31, (2R)-N-(5-isoxazol-5-yl-1,3,4-oxadiazol-2-yl)-2,3-dihydro-1,4-benzodioxine-2-carboxamide], the “lactate excretion by COLO 829 cells” value with COLO 829 cells [2] is recorded as “some inhibition”. Also, in the data set with MDA-MB-231 cells [4], the “average percent of dead MDA-MB-231 cells” value was 6,87±0,44%. For the same compound, the “lactate excretion by MDA-MB-231 cells” value in the data set on MDA-MB-231 cells [6] is recorded as “dose dependent inhibition of lactate excretion”. In the data set on COLO 829 cells [7], the “average percent of dead COLO 829 cells” value is 8,26±0,38%.

Source of the values: patent EP3833345B1, “SMALL MOLECULE-INHIBITORS OF 6-PHOSPHOFRUCTO-1-KINASE FOR REDUCING LACTATE GENERATION BY CANCER CELLS” (Kemijski Institut, priority 2018, dated 2020).
